From patent US11319306B2, “Compositions and methods for treating neurodegenerative diseases” (Azevan Pharmaceuticals, Inc., priority 2014, dated 2022) come the findings set out here.

Test [1] concerns the target T1, human V1a receptor (Homo sapiens, UniProt P37288).
T1 construct: host or cells: CHO cells (hV1a cell line)
The test is described as follows: Inhibition of phosphatidylinositol turnover (V1a). The class given is cell-based. The conditions noted are these: inhibition of vasopressin-mediated phosphatidylinositol turnover. The text has this: The physiological effects of vasopressin are mediated through specific G-protein coupled receptors. The vasopressin V1a receptor is coupled to the Gq/G11 family of G proteins and mediates phosphatidylinositol turnover. The agonist or antagonist character of the compounds of the invention may be determined by their ability to inhibit vasopressin-mediated turnover of phosphatidylinositol by the procedure described in the following paragraphs.
Cell culture and labeling of cells.
All assays were in triplicate except for basal and 10 nM AVP (both n=6). AVP ((arginine vasopressin), Peninsula Labs, Belmont, Calif., USA (#8103)) was dissolved in 0.1N acetic acid. Test agents were dissolved in DMSO and diluted in DMSO to 200 times the final test concentration. […] The order of incubations was randomized. Incubations were initiated by removing the prelabeling medium, washing the monolayer once with 1 mL of 0.9% NaCl, and transferring the contents of the assay tubes to corresponding wells. The plates were incubated for 1 hour at 37° C. Incubations were terminated by removing the incubation medium and adding 500 μL of ice cold 5% (w/v) trichloroacetic acid and allowing the wells to stand for 15 min.
BioRad Poly-Prep Econo-Columns were packed with 0.3 mL of AG 1 X-8 100-200 formate form resin. Resin was mixed 1:1 with water and 0.6 mL added to each column. Columns were then washed with 10 mL water. Scintillation vials (20 mL) were placed under each column. For each well, the contents were transferred to a minicolumn, after which the well was washed with 0.5 mL distilled water, which was also added to the minicolumn. The columns were then washed twice with 5 mL of 5 mM myo-inositol to elute free inositol. Aliquots (1 mL) were transferred to 20 mL scintillation vials and 10 mL of Beckman Ready Protein Plus added. After the myo-inositol wash was complete, empty scintillation vials were placed under the columns, and [^3H]inositol phosphates were eluted with three additions of 1 mL 0.5 M ammonium formate containing 0.1 N formic acid. Elution conditions were optimized to recover inositol mono-, bis-, and trisphosphates, without eluting the more metabolically inert tetrakis-, pentakis-, and hexakis-phosphates. To each sample was added 10 mL of a high salt capacity scintillation fluid such as Tru-Count High Salt Capacity or Packard Hionic-Fluor. Inositol lipids were measured by adding 1 mL of 2% sodium dodecyl sulfate (SDS) to each well, allowing the wells to stand for at least 30 min., and transferring the solution to 20 mL scintillation vials, to which 10 mL Beckman Ready Protein Plus scintillation fluid was then added. Samples were counted in a Beckman LS 3801 liquid scintillation counter for 10 min. Total inositol incorporation for each well was calculated as the sum of free inositol, inositol phosphates, and inositol lipids.
Concentration-response curves for AVP and concentration-inhibition curves for test agents versus 10 nM AVP were analyzed by nonlinear least-squares curve-fitting to a 4-parameter logistic function. Parameters for basal and maximal inositol phosphates, EC50 or IC50, and Hill coefficient were varied to achieve the best fit. The curve-fitting was weighted under the assumption that the standard deviation was proportional to dpm of radioactivity.

For test [2], the target named is T1, human V1a receptor. Kind of test: Human vasopressin V1a receptor binding assay (3H-AVP competition, hV1a CHO cells). The conditions noted are these: 3H-AVP competition, CHO cells expressing human V1a; for IC50: read-out: V1a Binding Affinity IC50; for Ki: read-out: V1a Ki. As to the method: Human vasopression V1a receptor binding assay. A cell line expressing the human V1a receptor in CHO cells (henceforth referred to as the hV1a cell line) was obtained from Dr. Michael Brownstein, NIMH, Bethesda, Md., USA. The hV1a cDNA sequence is described by Thibonnier et al., Journal of Biological Chemistry, 269, 3304-3310 (1994), and the expression method was the same as described by Morel et al. (1992). The hV1a cell line was grown in alpha-MEM with 10% fetal bovine serum and 250 ug/ml G418 (Gibco, Grand Island, N.Y., USA). For competitive binding assay, hV1a cells were plated into 6-well culture plate at 1:10 dilution from a confluency flask, and maintained in culture for at least two days. Culture medium was then removed, cells were washed with 2 ml binding buffer (25 mM Hepes, 0.25% BSA, 1×DMEM, PH=7.0). To each well, 990 μl binding buffer containing InM 3H-AVP was added, and followed by 10 μl series diluted Example compounds dissolved in DMSO. […] 100 nM cold AVP (Sigma) was used to assess non-specific binding. Cells were incubated for 45 minutes at 37° C., assay mixture was removed and each well was washed three times with PBS (pH=7.4). 1 ml 2% SDS was added per well and plates were let sit for 30 minutes. The whole content in a well was transferred to a scintillation vial. Each well was rinsed with 0.5 ml PBS which was then added to the corresponding vial. Scintillation fluid (Ecoscint, National Diagnostics, Atlanta, Ga.) was then added at 3 ml per vial. Samples were counted in a liquid scintillation counter (Beckman LS3801). IC50 values were calculated by Prism Curve fitting software.
All of the alkanedioic esters and amides exemplified in the foregoing examples dissolved in DMSO were tested in this assay. Binding curves were generated according to methods described by Thibonnier et al. (1994). [^3H]-AVP was added to the hV1a cell cultures followed by 10-fold dilutions of each test compound.

T1 sequence (P37288 whole entry): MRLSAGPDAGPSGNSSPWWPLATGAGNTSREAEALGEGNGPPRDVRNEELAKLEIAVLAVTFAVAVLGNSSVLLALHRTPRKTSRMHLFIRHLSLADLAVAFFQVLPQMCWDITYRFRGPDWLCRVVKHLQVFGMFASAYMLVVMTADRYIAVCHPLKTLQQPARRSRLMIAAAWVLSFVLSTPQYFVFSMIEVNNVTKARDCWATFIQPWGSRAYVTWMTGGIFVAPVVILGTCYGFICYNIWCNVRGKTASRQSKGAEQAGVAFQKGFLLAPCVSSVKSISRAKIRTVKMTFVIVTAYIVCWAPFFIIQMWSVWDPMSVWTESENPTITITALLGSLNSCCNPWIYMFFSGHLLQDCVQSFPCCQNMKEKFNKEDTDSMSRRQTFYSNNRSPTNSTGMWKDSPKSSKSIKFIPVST

Turning to `O=C(NCc1cccc(C(F)(F)F)c1)[C@H](CCC(=O)N1CCN(CCc2ccccc2)CC1)N1C(=O)[C@@H](N2C(=O)OC[C@@H]2c2ccccc2)[C@H]1C=Cc1ccccc1` (single isomer, unassigned) [Example 35], the “agonist or antagonist character” value at human V1a receptor [1] is “vasopressin V1a antagonists”.

A word on the IC50: it is the concentration needed to halve the response being measured. One may read the Ki as a dissociation constant, usually derived from enzyme kinetics or from competition with a known ligand. With `O=C(NCc1cccc(C(F)(F)F)c1)C(CCC(=O)N1CCC(N2CCCCC2)CC1)N1C(=O)C(N2C(=O)OCC2c2ccccc2)C1C=Cc1ccccc1` (single isomer, unassigned) [Example 88], on human V1a receptor [2], the IC50 is 2.4 nM and the Ki worked out at 1.45 nM. The “agonist or antagonist character” value on human V1a receptor [1] is “vasopressin V1a antagonists”. With `O=C(NCc1cccc(C(F)(F)F)c1)C(CCC(=O)N1CCN(C2CCCCC2)CC1)N1C(=O)C(N2C(=O)OCC2c2ccccc2)C1C=Cc1ccccc1` (single isomer, unassigned) [Example 110], at human V1a receptor [1], the “agonist or antagonist character” value is “vasopressin V1a antagonists”. With `O=C(NCc1cccc(C(F)(F)F)c1)C(CC(=O)N1CCC(N2CCCCC2)CC1)N1C(=O)C(N2C(=O)OCC2c2ccccc2)C1C=Cc1ccccc1` (centres unmarked) [Example 44], on human V1a receptor [2], the IC50 turned out to be 3.1 nM and the Ki is 1.89 nM. For the same molecule, the “agonist or antagonist character” value on human V1a receptor [1] is given as “vasopressin V1a antagonists”.

Consider `O=C(NCc1cccc(C(F)(F)F)c1)C(CC(=O)N1CCC(N2CCCCC2)CC1)N1C(=O)C(N2C(=O)OCC2c2ccccc2)C1C=Cc1ccccc1` (centres unmarked) [Example 133], for which, on human V1a receptor [2], the IC50 was 2.43 nM and the Ki was found to be 1.49 nM. Also, the “agonist or antagonist character” value at human V1a receptor [1] is reported as “vasopressin V1a antagonists”. Regarding `COc1cccc(/C=C/[C@@H]2[C@H](N3C(=O)OC[C@@H]3c3ccccc3)C(=O)N2[C@@H](CCC(=O)N2CCN(C3CCCCC3)CC2)C(=O)N[C@@H]2CCCc3ccccc32)c1` [Example 242], at human V1a receptor [2], the IC50 was 2.2 nM and the Ki was found to be 1.36 nM. The corresponding values for `O=C(N[C@@H]1CCCc2ccccc21)[C@H](CCC(=O)N1CCN(C2CCCCC2)CC1)N1C(=O)[C@@H](N2C(=O)OC[C@@H]2c2ccccc2)[C@H]1/C=C/c1cccc(Cl)c1` [Example 243] are 0.5 nM and 0.3 nM.

On to `O=C(NC1(c2ccccc2)CCCC1)[C@H](CCC(=O)N1CCN(C2CCCCC2)CC1)N1C(=O)[C@@H](N2C(=O)OC[C@@H]2c2ccccc2)[C@H]1/C=C/c1cccc(Cl)c1` [Example 244], for which, at human V1a receptor [2], the IC50 was found to be 3.4 nM and the Ki was found to be 2.1 nM. On to `O=C(N[C@@H]1CCCc2ccccc21)[C@H](CCC(=O)N1CCN(C2CCCCC2)CC1)N1C(=O)[C@@H](N2C(=O)OC[C@@H]2c2ccccc2)[C@H]1/C=C/c1cccc(F)c1` [Example 245], for which, on human V1a receptor [2], the IC50 stood at 1.1 nM and the Ki came to 0.68 nM. The corresponding values for `O=C(N[C@@H]1CCCc2ccccc21)[C@H](CCC(=O)N1CCN(C2CCCCC2)CC1)N1C(=O)[C@@H](N2C(=O)OC[C@@H]2c2ccccc2)[C@H]1/C=C/c1cccc(C(F)(F)F)c1` [Example 246] are 2.1 nM and 1.3 nM.

In the case of `N#Cc1cccc(/C=C/[C@@H]2[C@H](N3C(=O)OC[C@@H]3c3ccccc3)C(=O)N2[C@@H](CCC(=O)N2CCN(C3CCCCC3)CC2)C(=O)N[C@@H]2CCCc3ccccc32)c1` [Example 248], at human V1a receptor [2], the IC50 was 5.3 nM and the Ki came to 3.3 nM. The corresponding values for `O=C(N[C@@H]1CCCc2ccccc21)[C@H](CCC(=O)N1CCN(C2CCCCC2)CC1)N1C(=O)[C@@H](N2C(=O)OC[C@@H]2c2ccccc2)[C@H]1/C=C/c1cccc([N+](=O)[O-])c1` [Example 249] are 1.7 nM and 1 nM.

Take `O=C(N[C@@H]1CCCc2ccccc21)[C@H](CCC(=O)N1CCN(C2CCCCC2)CC1)N1C(=O)[C@@H](N2C(=O)OC[C@@H]2c2ccccc2)[C@H]1/C=C/c1ccccc1Cl` [Example 250]: on human V1a receptor [2], the IC50 is 6.5 nM and the Ki was determined as 4 nM. The corresponding values for `O=C(N[C@@H]1CCCc2ccccc21)[C@H](CCC(=O)N1CCN(C2CCCCC2)CC1)N1C(=O)[C@@H](N2C(=O)OC[C@@H]2c2cccc(Cl)c2)[C@H]1/C=C/c1cccc(Cl)c1` [Example 251] are 0.5 nM and 0.3 nM. On the same counts, the results for `O=C(N[C@@H]1CCCc2ccccc21)[C@H](CCC(=O)N1CCN(C2CCCCC2)CC1)N1C(=O)[C@@H](N2C(=O)OC[C@@H]2c2ccccc2)[C@H]1/C=C/c1cc(Cl)cc(Cl)c1` [Example 252] are 1.8 nM and 1.1 nM. On the same counts, the results for `CC(NC(=O)C(CC(=O)N1CCC(N2CCCCC2)CC1)N1C(=O)C(N2C(=O)OCC2c2ccccc2)C1C=Cc1cccc(Cl)c1)c1ccccc1` (centres unmarked) [Example 559] are 0.12 nM and 0.073 nM. Consider `CC(NC(=O)C(CC(=O)N1CCC(CN2CCCCC2)CC1)N1C(=O)C(N2C(=O)OCC2c2ccccc2)C1C=Cc1ccccc1)c1ccccc1` (centres unmarked) [Example 601], for which, on human V1a receptor [2], the IC50 came to 1 nM and the Ki worked out at 0.62 nM.

Consider `CC(NC(=O)C(CC(=O)N1CCC(N2CCCCC2)CC1)N1C(=O)C(N2C(=O)OCC2c2ccccc2)C1C=Cc1cccc(Br)c1)c1ccccc1` (centres unmarked) [Example 606], for which, at human V1a receptor [2], the IC50 came to 0.53 nM and the Ki was found to be 0.32 nM. As for `CC(NC(=O)C(CC(=O)N1CCC([N+]2([O-])CCCCC2)CC1)N1C(=O)C(N2C(=O)OCC2c2ccccc2)C1C=Cc1ccccc1)c1ccccc1` (centres unmarked) [Example 672], the Ki on human V1a receptor [2] was 1.1 nM.

As for `O=C(NCc1ccccc1F)C(CC(=O)N1CCC(N2CCCCC2)CC1)N1C(=O)C(N2C(=O)OCC2c2ccccc2)C1C=Cc1ccccc1` (centres unmarked) [Example 677], the Ki at human V1a receptor [2] is 3 nM. “(2S)-[(4-cyclohexylpiperazinyl)carbonylethyl]-2-[3(S)-(4(S)-phenyloxazolidin-2-on-3-yl)-4(R)-(2-phenyleth-1-yl)azetidin-2-on-1-yl]acetic acid N—[(R)-1,2,3,4-tetrahydronaphth-1-yl]amide [Example 236A]”: at human V1a receptor [2], the 50% inhibitory concentration (IC50) worked out at 9 nM and the Ki was 5.5 nM.
